Assay results taken from patent publication US9387206B2, “Therapeutic approaches for treating Alzheimer's disease” (PHARNEXT, priority 2009, dated 2016).

How the values were obtained:
Format in all cases: cell-based
[1] = tested on: human brain microvascular endothelial cells (HBMEC); test: Total length of capillary network in human Aβ1-42 intoxicated HBMEC cultures; conditions: for Effect on Aβ1-42 intoxication, total length of capillary network, drug alone / Prevention of Aβ1-42 intoxication, capillary network, drug alone: Aβ1-42 2.5 μM; for Prevention of Aβ1-42 intoxication, capillary network, drug alone: dose-response experiments, 18 h
Method: Human brain microvascular endothelial cell cultures were used to study the protection afforded by candidate compounds on Aβ1-42 toxicity.
Human brain microvascular endothelial cerebral cells (HBMEC, ScienCell Ref: 1000, frozen at passage 10) were rapidly thawed in a water bath at +37° C. […] On matrigel support, endothelial cerebral cells spontaneously started the process of capillary network morphogenesis (47).
Three separate cultures were performed per condition, 6 wells per condition.
The control medium was prepared in the same conditions.
The Aβ1-42 peptide was added 2 hours after HBMEC seeding on matrigel for 18 hours incubation.
Capillary Network Quantification
Per well, 2 pictures with 4× lens were taken using InCell Analyzer™ 1000 (GE Healthcare) in light transmission. All images were taken in the same conditions. Analysis of the angiogenesis networks was done using Developer software (GE Healthcare). The total length of capillary network was assessed.
All values are expressed as mean±s.e.mean of the 3 cultures (n=6 per condition). Statistical analyses were done on the different conditions performing an ANOVA followed by the Dunnett's test when it was allowed (Statview software version 5.0). The values (as %) inserted on the graphs show the amyloid toxicity evolution. Indeed, the amyloid toxicity was taken as the 100% and the test compound effect was calculated as a % of this amyloid toxicity.

[2] = tested on: rat primary cortical neurons; test: LDH release, human Aβ1-42 toxicity on rat primary cortical cells
Method: Primary rat cortical neurons are cultured as described previously.
Briefly, Aβ1-42 peptide was reconstituted in defined culture medium at 40 μM (mother solution) and was slowly shacked at +37° C. for 3 days in the dark for aggregation. The control medium was prepared in the same conditions.
After 10 days of neuron culture, the drug was solved in culture medium (+0.1% DMSO) and then pre-incubated with neurons for 1 hour before the Aβ1-42 application (in a final volume per culture well of 100 μl). […] Cortical neurons were intoxicated for 24 hours. Three separate cultures were performed per condition, 6 wells per condition.
Estradiol-β at 100 and 150 nM were used as a reference test compound and BDNF at 50 ng/ml was used as a positive control. Three separate cultures were performed per condition, […].
Estradiol-β and BDNF were solved in culture medium and pre-incubated for 1 h before the aggregated amyloid-β1-42 application.
Lactate Dehydrogenase (LDH) Activity Assay
This colorimetric assay for the quantification of cell toxicity is based on the measurement of lactate dehydrogenase (LDH) activity released from the cytosol of dying cells into the supernatant.
All values are expressed as mean±s.e.mean of the 3 cultures (n=6 per condition). Statistical analyses were done on the different conditions (ANOVA followed by the Dunnett's test when it was allowed, Statview software version 5.0).

[3] = tested on: rat endothelial cerebral cells; test: LDH release from rat endothelial cerebral cells, beta-amyloid (Aβ25-35) toxicity; conditions: for Prevention of Aβ25-35 intoxication, LDH release: Aβ25-35 30 μM, 3 days, drug added 1 hour before; for Spontaneous cell death in the culture medium: LDH release, rat endothelial cerebral cells
Method: Primo culture of rat endothelial cerebral cells (Vect-Horus SAS, Marseille) is cultivated on passage 0. At confluence, endothelial cells are dissociated with trypsin EDTA (Pan Biotech Ref: P10-023100). Cells are seeded at a density of 25,000 cells/well in 96-well plates (wells are coated with 30 μl of type I rat collagen at 1.5 mg/ml, Vect-Horus SAS, Marseille) and are cultured in MCBD 131 medium (M-131-500, Invitrogen) supplemented with 1% of microvascular growth supplement (MVGS, S-005-25, Invitrogen). Cells are cultured at 37° C. in a humidified air (95%)/CO2(5%) atmosphere. Half of the medium is changed every other day with fresh medium.
After 4 days, drugs are added to the cell culture medium, at different concentrations, solved in DMSO 0.1% or water.
Cells are then intoxicated with 30 μM of β-amyloid (25-35; Sigma) together with drugs in the same culture medium. Cells are then intoxicated for 3 days.
For each culture, after 3 days of intoxication, the supernatant is collected and analyzed with the Cytotoxicity Detection Kit (LDH, Roche Applied Sciences). This colorimetric assay for the quantification of cell death is based on the measurement of lactate dehydrogenase (LDH) activity released from the cytosol of damaged cells into the supernatant. The optic density (DO) is assessed by spectrophotometer at 492 nm wavelength by a multiscan apparatus (Thermo, Ref Ascent).
Results presented in FIG. 3 are extracted from two independent cultures, 6 wells per condition. All values are expressed as mean±s.e.m. A bilateral Student's t test analysis is performed on raw data. Results are expressed in percentage of cell viability, compared to the control (vehicle).
Drugs are incubated with rat primary cerebral endothelial cells for one hour before Aβ25-35 30 μM intoxication that lasts 3 days.
Three days after this incubation, LDH release in the culture medium is quantified, reflecting the level of cell death.

[4] = tested on: rat primary cortical neurons; test: LDH release in Aβ25-35 intoxicated rat primary cortical neuron culture; conditions: Aβ25-35 20 μM, 2 days; drug added 1 hour before
Method: Primary rat cortical neurons are cultured as described by Singer et al., 1999. Briefly pregnant female rats of 15 days gestation are killed by cervical dislocation (Rats Wistar; Janvier) and the foetuses removed from the uterus. The cortexes are removed and placed in ice-cold medium of Leibovitz (L15; Invitrogen) containing 1% of Penicillin-Streptomycin (PS; Invitrogen) and 1% of bovine serum albumin (BSA; Sigma). Cortexes are dissociated by trypsinisation for 20 min at 37° C. (Trypsin EDTA 1×; Invitrogen) diluted in PBS without calcium and magnesium. The reaction is stopped by the addition of Dulbecco's modified Eagle's medium (DMEM; Invitrogen) containing DNAase I grade II (0.1 mg/ml; Roche Diagnostics) and 10% of foetal calf serum (FCS; Invitrogen). Cells are then mechanically dissociated by 3 passages through a 10 ml pipette. Cells are then centrifuged at 180×g for 10 min at 10° C. […] Viable cells are counted in a Neubauer cytometer using the trypan blue exclusion test. Cells are seeded at a density of 30,00-cells/well in 96-well plates (wells are pre-coated with poly-L-lysine (10 μg/ml; […] After 6 days of culture, cells are incubated with drugs (5 concentrations). After 1 hour, cells are intoxicated by 20 μM of β-amyloid (25-35; Sigma) in defined medium without BDNF but together with drugs. Cortical neurons are intoxicated for 2 days. After 2 days of culture, the supernatant is collected and analyzed with the Cytotoxicity Detection Kit (LDH, Roche Applied Sciences). This colorimetric assay for the quantification of cell death is based on the measurement of lactate dehydrogenase (LDH) activity released from the cytosol of damaged cells into the supernatant. The optic density (DO) is assessed by spectrophotometer at 492 nm wavelength by a multiscan apparatus (Thermo, Ref Ascent). […] Two days after this incubation, LDH release in the culture medium is quantified, reflecting the level of cell death.

[5] = alone at the concentrations used in the combination (FIGS. 8-13)
[6] = drug pretreatment, concentration not given

| Molecule | Effect on Aβ1-42 intoxication, total length of capillary network, drug alone [1, 5] | Prevention of Aβ1-42 intoxication, capillary network, drug alone [1] | LDH release, prevention of Aβ1-42 intoxication [2, 6] [%] | Prevention of Aβ25-35 intoxication, LDH release [3] | other results |
| --- | --- | --- | --- | --- | --- |
| NCCCCCC(=O)O [Aminocaproic acid, Aminocaproic Acid] | no significant effect | – | – | – | – |
| NCC(CC(=O)O)c1ccc(Cl)cc1 (racemic) [Baclofen] | no significant effect | significantly prevented | −86 | – | – |
| CCOC(=O)c1cncn1[C@H](C)c1ccccc1 [Etomidate] | – | – | −50 | – | – |
| Cc1oncc1C(=O)Nc1ccc(C(F)(F)F)cc1 [Leflunomide] | – | – | – | significantly prevented | Spontaneous cell death in the culture medium [3]: decrease spontaneous cell death; Prevention of Aβ25-35 intoxication, LDH release [4]: significantly prevented |
| C[C@@H]1CC(=O)NN=C1c1ccc(NN=C(C#N)C#N)cc1 [Levosimendan] | no significant effect | significantly prevented | −47 | – | Protective effect against toxicity of Aβ peptide 1-42, drug alone ([1]; 8 nM, HBMEC): strong protective effect |
| NCC(CC(=O)O)c1ccc(Cl)cc1 (stereo not drawn) [Baclofen (−), Baclofen] | – | – | – | significantly prevented | – |
| CN(C/C=C/C#CC(C)(C)C)Cc1cccc2ccccc12 [Terbinafine] | no significant effect | significantly prevented | – | significantly prevented | Spontaneous cell death in the culture medium [3]: decrease spontaneous cell death |
| CCN(CC)C(=O)N1CCN(C)CC1 [Carbamazine] | – | – | – | – | Effect on Aβ1-42 intoxication, LDH release, drug alone ([2]; 0.32 nM alone, Aβ1-42 2.5 μM): no significant effect; LDH release, prevention of Aβ1-42 intoxication ([2]; 40 nM, Aβ1-42 10 μM): −68%; Protective effect against toxicity of Aβ peptide 1-42, drug alone ([2]; 40 nM, primary cortical neuron cells): strong protective effect |
| Cc1noc(NS(=O)(=O)c2ccc(N)cc2)c1C [Sulfisoxazole] | no significant effect | significantly prevented | −42 | significantly prevented | Effect on Aβ1-42 intoxication, total length of capillary network, drug alone ([1]; 1.36 nM alone): no significant effect; Prevention of Aβ25-35 intoxication, LDH release [4]: significantly prevented |
| C(=C\c1ccccc1)/CN1CCN(C(c2ccccc2)c2ccccc2)CC1 [Cinnarizine] | – | – | −50 | – | – |
| CC1(C)[C@@H](OC(=O)CCC(=O)O)CC[C@]2(C)[C@H]3C(=O)C=C4[C@@H]5C[C@@](C)(C(=O)O)CC[C@]5(C)CC[C@@]4(C)[C@]3(C)CC[C@@H]12 [Carbenoxolone] | – | – | −39 | – | – |
| brain-derived neurotrophic factor (protein, UniProt P23560 19-247, looked up, positive control for neuroprotection at 50 ng/ml) Neurotrophic factor BDNF …: APMKEANIRGQGGLAYPGVRTHGTLESVNGPKAGSRGLTSLADTFEHVIEELLDEDQKVRPNEENNKDADLYTSRVMLSSQVPLEPPLLFLLEEYKNYLDAANMSMRVRRHSDPARRGELSVCDSISEWVTAADKKTAVDMSGGTVTVLEKVPVSKGQLKQYFYETKCNPMGYTKEGCRGIDKRHWNSQCRTTQSYVRALTMDSKKRIGWRFIRIDTSCVCTLTIKRGR | – | – | – | – | LDH release, protection from amyloid injury ([2]; BDNF 50 ng/ml, 1 hr pre-treatment, Aβ1-42): −62% |
